What is called IC50 is the concentration that inhibits the measured activity by half. In general, AC50 refers to the concentration giving half of the maximal activity seen. By EC50 is commonly meant the midpoint of the concentration-response curve.

A short description of experiment [1]: cells.
The test system of experiment [2] is Vero. Put plainly: cells. The class given is functional, cell-based. The settings on record: Chlorocebus sabaeus.
The nature of experiment [3]: viability of uninfected HEp-2 cells – cell-based, HTS, cytotoxicity control for RSV inhibitor project, dose response (AID 2410). The settings on record: human respiratory syncytial virus. Type of experiment: functional.
A short description of experiment [4]: HEK-293T viability loss after treatment – luminescence, T-cell screen hits, cytotoxicity control for TCR NF-kB inhibitor project, dose response (AID 489026).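 Also: cells exposed to compound about 14 hours before the viability readout.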 The class given is functional, cell-based.
Experiment [5] concerns the target Heat shock protein HSP 90-alpha (Homo sapiens, UniProt P07900). The class given is functional, organism-based.
Experiment [6] deals with Vero. Put plainly: cells. The class given is functional. The settings on record: Chlorocebus sabaeus.
A further experiment concerns the target T1, Caspase-3 (Homo sapiens, UniProt P42574).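 Also: Dose-response selectivity test against caspase-3 for candidate inhibitors of sentrin-specific proteases (SENPs).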
T1 sequence (P42574 whole entry): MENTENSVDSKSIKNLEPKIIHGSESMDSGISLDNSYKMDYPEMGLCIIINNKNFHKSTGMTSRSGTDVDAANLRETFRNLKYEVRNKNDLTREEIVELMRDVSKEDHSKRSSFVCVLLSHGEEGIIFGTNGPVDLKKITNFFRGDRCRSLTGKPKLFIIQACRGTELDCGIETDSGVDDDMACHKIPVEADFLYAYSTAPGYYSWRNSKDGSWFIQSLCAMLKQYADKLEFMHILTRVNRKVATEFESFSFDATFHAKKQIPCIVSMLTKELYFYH
The class given is functional.

A short description of experiment [7]: Vero E6 cell cytotoxicity, dose response, cytotoxicity control for non-replicating M. tuberculosis project, secondary assay (AID 492998). Type of experiment: functional, VeroE6. To be noted: Vero C1008.
The target in experiment [8] is T2, Sentrin-specific protease 6 (Homo sapiens, UniProt Q9GZR1).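 Also: Luminescence-based dose-response confirmatory assay of SENP6 inhibition, following up an ultra-high-throughput screen.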
T2 sequence (Q9GZR1 whole entry): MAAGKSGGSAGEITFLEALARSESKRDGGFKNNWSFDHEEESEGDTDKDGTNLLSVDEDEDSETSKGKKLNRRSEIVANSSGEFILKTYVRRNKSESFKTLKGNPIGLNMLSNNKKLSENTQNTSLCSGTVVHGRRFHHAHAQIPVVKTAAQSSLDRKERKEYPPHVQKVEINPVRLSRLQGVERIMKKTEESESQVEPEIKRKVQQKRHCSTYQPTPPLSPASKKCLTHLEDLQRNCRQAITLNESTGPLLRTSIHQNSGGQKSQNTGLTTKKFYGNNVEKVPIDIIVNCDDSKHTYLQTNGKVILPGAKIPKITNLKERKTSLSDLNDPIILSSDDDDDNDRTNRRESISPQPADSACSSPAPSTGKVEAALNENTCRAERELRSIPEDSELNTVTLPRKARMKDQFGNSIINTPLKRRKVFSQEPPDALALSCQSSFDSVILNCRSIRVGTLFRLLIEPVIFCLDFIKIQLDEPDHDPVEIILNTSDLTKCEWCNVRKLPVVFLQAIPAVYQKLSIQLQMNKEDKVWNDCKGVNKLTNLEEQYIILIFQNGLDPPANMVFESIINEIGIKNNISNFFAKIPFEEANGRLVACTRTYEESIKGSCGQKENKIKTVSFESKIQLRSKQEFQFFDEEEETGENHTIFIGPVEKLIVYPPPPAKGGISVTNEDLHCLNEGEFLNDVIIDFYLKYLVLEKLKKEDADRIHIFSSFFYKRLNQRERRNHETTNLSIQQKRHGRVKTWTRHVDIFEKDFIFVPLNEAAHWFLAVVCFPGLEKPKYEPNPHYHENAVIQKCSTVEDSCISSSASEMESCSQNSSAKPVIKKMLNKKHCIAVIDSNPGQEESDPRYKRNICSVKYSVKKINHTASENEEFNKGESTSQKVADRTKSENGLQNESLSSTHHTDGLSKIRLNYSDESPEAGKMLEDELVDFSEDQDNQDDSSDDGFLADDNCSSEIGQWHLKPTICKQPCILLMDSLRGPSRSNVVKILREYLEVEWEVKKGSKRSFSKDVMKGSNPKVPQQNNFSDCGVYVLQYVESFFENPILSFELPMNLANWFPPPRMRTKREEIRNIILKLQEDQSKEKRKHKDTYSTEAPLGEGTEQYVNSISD
Type of experiment: functional.

Experiment [9] addresses T3, Sentrin-specific protease 7 (Homo sapiens, UniProt Q9BQF6).
T3 sequence (Q9BQF6 whole entry): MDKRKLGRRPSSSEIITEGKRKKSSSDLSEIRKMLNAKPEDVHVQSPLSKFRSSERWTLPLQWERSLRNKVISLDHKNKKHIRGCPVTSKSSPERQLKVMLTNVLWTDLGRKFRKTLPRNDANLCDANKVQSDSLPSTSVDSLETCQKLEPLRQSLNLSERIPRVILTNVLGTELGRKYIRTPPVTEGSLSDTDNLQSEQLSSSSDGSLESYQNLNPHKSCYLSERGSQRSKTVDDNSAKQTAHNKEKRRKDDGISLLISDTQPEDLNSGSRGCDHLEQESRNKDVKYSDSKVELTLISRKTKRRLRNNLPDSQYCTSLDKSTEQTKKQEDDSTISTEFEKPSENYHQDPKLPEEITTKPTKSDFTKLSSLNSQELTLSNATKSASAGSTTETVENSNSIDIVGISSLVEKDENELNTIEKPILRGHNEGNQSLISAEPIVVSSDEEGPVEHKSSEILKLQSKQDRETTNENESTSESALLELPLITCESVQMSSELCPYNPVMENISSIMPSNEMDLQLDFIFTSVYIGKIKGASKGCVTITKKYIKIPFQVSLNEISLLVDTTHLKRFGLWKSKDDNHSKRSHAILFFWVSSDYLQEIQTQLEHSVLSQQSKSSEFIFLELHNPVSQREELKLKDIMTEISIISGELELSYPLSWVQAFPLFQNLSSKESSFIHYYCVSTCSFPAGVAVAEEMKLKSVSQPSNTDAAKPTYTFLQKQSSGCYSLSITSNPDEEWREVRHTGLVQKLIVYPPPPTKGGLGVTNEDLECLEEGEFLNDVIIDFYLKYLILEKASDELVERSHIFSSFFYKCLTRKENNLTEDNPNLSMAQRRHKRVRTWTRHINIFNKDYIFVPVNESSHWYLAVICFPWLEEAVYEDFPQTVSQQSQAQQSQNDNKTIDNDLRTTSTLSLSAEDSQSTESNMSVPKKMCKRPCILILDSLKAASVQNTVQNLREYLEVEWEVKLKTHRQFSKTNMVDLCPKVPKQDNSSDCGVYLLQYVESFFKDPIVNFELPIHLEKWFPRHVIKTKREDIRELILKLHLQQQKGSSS
Type of experiment: functional.

Another experiment deals with INS1. The experiment can be described thus: INS-1E survival protection against cytokine death – cell-based, luminescence, retest, dose response (AID 449756).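 Also: cell death triggered by IL-1 beta plus TNF-alpha plus IFN-gamma mixture; protective hits raise ATP signal compared with cytokine alone wells.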 To be noted: Rattus norvegicus. Type of experiment: functional.
Experiment [10] can be described thus: cells. Type of experiment: functional.
The target in experiment [11] is T4, Sentrin-specific protease 8 (Homo sapiens, UniProt Q96LD8).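 Also: luminescence read-out of SENP8 inhibition, dose-response confirmation following an ultra-high-throughput screen.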
T4 sequence (Q96LD8 whole entry): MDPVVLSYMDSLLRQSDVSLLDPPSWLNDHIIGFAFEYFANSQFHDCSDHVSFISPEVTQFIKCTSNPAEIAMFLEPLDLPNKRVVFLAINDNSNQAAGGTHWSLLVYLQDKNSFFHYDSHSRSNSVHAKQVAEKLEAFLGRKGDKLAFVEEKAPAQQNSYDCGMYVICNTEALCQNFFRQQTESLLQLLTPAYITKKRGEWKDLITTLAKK
Type of experiment: functional.

Experiment [12] can be described thus: Luminescence Cell-Based Dose Retest to Confirm Inhibitors of Cancer Stem Cells. [Related pubchem assays (depositor defined):AID2717, AID2721]. Type of experiment: functional. The settings on record: Homo sapiens.
Experiment [13] is described as follows: THP-1 cell cytotoxicity, dose response, cytotoxicity control for non-replicating M. tuberculosis project (AID 489025). The class given is functional.
For experiment [14], the system named is Streptococcus sp. 'group A'. The experiment can be described thus: Streptococcus pyogenes SK(-)GAS viability under kanamycin – luminescence, BacTiterGlo, confirmation, counter-screen for streptokinase expression inhibitor project, dose response (AID 1900). Type of experiment: functional, organism-based.
The next experiment concerns Streptococcus. Put plainly: GAS UMAA2166 growth inhibition – luminescence, BacTiterGlo, counter-screen for streptokinase expression inhibitor project, dose response (AID 1915).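 Also: potency for reduction of bacterial viability or growth.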 Type of experiment: functional, organism-based.
A short description of experiment [15]: microbe, parasite or virus in culture. Type of experiment: functional. To be noted: Mycobacterium tuberculosis.

The source made the active and inactive calls.

Take `COc1ccccc1C1CCCN1Cc1nc(-c2ccc(C)s2)oc1C` (configuration not stated): the results for the concentration for half-maximal inhibition (IC50) in the experiment “cells [1]” and with Vero [2] were 33.3 µM (active) and 10.9 µM (active), respectively. For the same compound, the CC50 in experiment [3] is 20.2 µM (active).

Regarding `O=S(=O)(Nc1ccc(F)cc1Cl)c1ccc(-c2cnc(C3CC3)o2)cc1`, in experiment [4], the IC50 was > 80 µM (inactive).

Consider `Cc1cccc(NC(S)=NCC23C=CC(O2)C2C(=O)N(c4ccc(Cl)cc4)C(=O)C23)c1` (configuration not stated), for which the AC50 in experiment [5] was 15 µM (active).

Consider `O=C(CCN1C(=O)/C(=C/c2ccc(F)cc2)SC1=S)NCCc1ccc(O)cc1`, for which, in the experiment on Vero [6], the CC50 is 24.1 µM (active). In addition, the IC50 in the experiment on Vero [2] was > 25 µM (active).

With `O=C(Nc1ccn(Cc2ccccc2F)n1)c1ccc(COc2ccc(Br)cc2)cc1`, in experiment [4], the IC50 is > 80 µM (inactive).

As for `O=C1C=C(Nc2ccc(F)cc2)c2ccccc2C1=O`, the 50% inhibitory concentration (IC50) at Caspase-3 is 13.9 µM (active); in experiment [8], 2.94 µM (active); in experiment [9], 9.46 µM (active); in the experiment “cells [10]”, 4.25 µM (active); in experiment [11], 4.81 µM (active). The CC50 is 9.15 µM (active) in [7] and 19 µM (active) in experiment [13]. Also, the AC50 in the experiment on INS1 was 3.06 µM (active); in experiment [12] it was 3.19 µM (active).

As to `OC(Cn1cncn1)(c1ccc(F)cc1)c1ccc(Cl)cc1` (configuration not stated), in experiment [5], the AC50 was < 0.195 µM (active).

Consider `CC(C)c1ccc(OCC(=O)NNC(=S)NC(=O)c2ccco2)c(Br)c1`, for which, in the experiment with Vero [6], the CC50 is > 25 µM (active). The concentration giving a half-maximal response (EC50) was < 0.06 µM (active) in [14] and 0.141 µM (active) in the experiment on Streptococcus. Also, the half-maximal inhibitory concentration (IC50) with Vero [2] was > 25 µM (active).

For `Cc1cc(/C=C/c2ccc3cc(N(C)C)ccc3[n+]2C)c(C)n1-c1ccccc1`, the half-maximal activity concentration (AC50) in experiment [5] was 5.91 µM (active). Also, the CC50 in experiment [15] was 2.28 µM (active).

Regarding `CCCc1c(NC(=O)Nc2ccc(Cl)cc2Cl)cnn1-c1ccccc1`, in the experiment with Vero [6], the CC50 was > 25 µM (active). In addition, the IC50 with Vero [2] was 17.9 µM (active).

Turning to `CCCCCCCCCC(=O)N[C@@H]1c2cc(OC)c(OC)cc2C[C@H]1OCc1ccccc1`, the IC50 in the experiment with Vero [2] was > 25 µM (active).
